Here are results for 24 compounds from patent publication US6451814B1, “Heterocyclic β-3 adrenergic receptor agonists” (Wyeth, priority 2000, dated 2002).

Data set [1] concerns the target T1, human β3-adrenergic receptor (Homo sapiens, UniProt P13945).
T1 construct: Full length β3 AR clones (402 amino acids) containing the last 6 amino acids of hβ3—AR are prepared; expressed in transfected cells; host or cells: CHO cells
Briefly: cAMP response (SPA kit) in CHO cells transfected with human β3 adrenergic receptor. The class given is cell-based. The note with it: for EC50: CHO cells expressing human β3-AR, 10^-9 M to 10^-5 M, 30 min at 37° C., cAMP by SPA, read-out: EC50(β3); for IA(β3): maximal response of compound compared to maximal response of isoproterenol at 10^-5 M, CHO cells, human β3-AR.

Where “and” joins values, the source holds several entries; their conditions need not be identical. Identical values can stand only once. Counter-ions that a name gives are not always drawn.

T1 sequence (P13945 whole entry): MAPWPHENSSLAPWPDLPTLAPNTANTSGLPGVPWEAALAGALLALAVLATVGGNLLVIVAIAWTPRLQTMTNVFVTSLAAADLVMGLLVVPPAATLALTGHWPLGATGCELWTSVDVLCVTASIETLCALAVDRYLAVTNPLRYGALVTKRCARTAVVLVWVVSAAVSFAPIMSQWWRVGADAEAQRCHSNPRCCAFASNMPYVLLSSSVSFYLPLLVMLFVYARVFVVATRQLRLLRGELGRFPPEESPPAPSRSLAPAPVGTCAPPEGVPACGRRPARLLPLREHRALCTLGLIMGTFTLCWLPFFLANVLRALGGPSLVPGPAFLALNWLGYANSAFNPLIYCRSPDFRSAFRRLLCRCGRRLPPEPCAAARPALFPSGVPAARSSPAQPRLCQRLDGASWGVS

Regarding `CS(=O)(=O)Nc1cc([C@@H](O)CNCCc2ccc(NC3CCN(c4nc(-c5ccccc5)cs4)CC3)cc2)ccc1O` (as salt: salt) [Example 118, (R)-N-{2-Hydroxy-5-[1-hydroxy-2-(2-{4-[1-(4-phenyl-thiazol-2-yl)-piperidin-4-ylamino]-phenyl}-ethylamino)-ethyl]-phenyl}-methanesulfonamide], the melting point is 142 to 145 °C.
Still for that read-out and setting: to `CCCCCCCCNC(=O)N1CCC(Nc2ccc(CCNC[C@H](O)COc3ccc(F)cc3)cc2)CC1` [Example 3, 4-(4-{2-[(2S)-3-(4-Fluoro-phenoxy)-2-hydroxy-propylamino]-ethyl}-phenylamino)-piperidine-1-carboxylic Acid Octylamide] belongs 58 to 64 °C.
`O=C(NCC(F)(F)F)N1CCC(Nc2ccc(CCNC[C@H](O)COc3ccc(O)cc3)cc2)CC1` [Example 13, 4-(4-{2-[(2S)-2-Hydroxy-3-(4-hydroxy-phenoxy)-propylamino]-ethyl}-phenylamino)-piperidine-1-carboxylic Acid (2,2,2-trifluoro-ethyl)-amide] had a melting point of 89 to 94 °C. For the same compound, in data set [1], the half-maximal effective concentration (EC50) turned out to be 66 nM and the “IA(β3)” value is recorded as 0.82.
As for `CCN(CC)C(=O)N1CCC(Nc2ccc(CCNC[C@H](O)COc3ccc(O)cc3)cc2)CC1` [Example 14, 4-(4-{2-[(2S)-2-Hydroxy-3-(4-hydroxy-phenoxy)-propylamino]-ethyl}-phenylamino)-piperidine-1-carboxylic Acid Diethylamide], the melting point was in the range of 61 to 65 °C.
As for `O=C(NCCc1ccc(F)cc1)N1CCC(Nc2ccc(CCNC[C@H](O)COc3ccc(O)cc3)cc2)CC1` [Example 15, 4-(4-{2-[(2S)-2-Hydroxy-3-(4-hydroxy-phenoxy)-propylamino]-ethyl}-phenylamino)-piperidine-1-carboxylic Acid [2-(4-fluoro-phenyl)-ethyl]-amide], the melting point fell in the range of 73 to 77 °C. Further, in data set [1], the EC50 was found to be 34 nM and the “IA(β3)” value came out at 0.91.
For `CCCCCCCCNC(=O)N1CCC(Nc2ccc(CCNC[C@H](O)COc3ccc(O)cc3Cl)cc2)CC1` [Example 16, 4-[4-(2-{[(2S)-3-(2-Chloro-4-hydroxyphenoxy)-2-hydroxypropyl]amino}ethyl)anilino]-N-octyl-1-piperidinecarboxamide] the same measures were 61 to 65 °C, 542 nM and 1.
For `COc1ccc(C2CCN(C(=O)N3CCC(Nc4ccc(CCNC[C@H](O)COc5ccc(O)cc5)cc4)CC3)CC2)cc1OC1CCCC1` [Example 17, [4-(3-Cyclopentyloxy-4-methoxy-phenyl)-piperidin-1-yl]-[4-(4-{2-[(2S)-2-hydroxy-3-(4-hydroxy-phenoxy)-propylamino]-ethyl}-phenylamino)-piperidin-1-yl]-methanone] the same measures were 92 to 95 °C, 15 nM and 0.63.
Turning to `NC(=O)N1CCC(Nc2ccc(CCNC[C@H](O)COc3ccc(O)cc3)cc2)CC1` [Example 18, 4-(4-{2-[(2S)-2-Hydroxy-3-(4-hydroxy-phenoxy)-propylamino]-ethyl}-phenylamino)-piperidine-1-carboxylic Acid Amide], the melting point fell in the range of 84 to 89 °C. The “IA(β3)” value in data set [1] is on record as 1.
As to `CCCCCCCCNC(=O)N1CCC(Nc2ccc(CCNC[C@H](O)COc3ccc(NS(C)(=O)=O)cc3)cc2)CC1` [Example 22, 4-(4-{2-[(2S)-2-Hydroxy-3-(4-methanesulfonylamino-phenoxy)-propylamino]-ethyl}-phenylamino)-piperidine-1-carboxylic Acid Octylamide], the melting point lay within 89 to 95 °C.
In the case of `O=C(NCCCc1cccs1)N1CCC(Nc2ccc(CCNC[C@H](O)COc3ccc(O)cc3)cc2)CC1` [Example 23, 4-(4-{2-[(2S)-2-Hydroxy-3-(4-hydroxy-phenoxy)-propylamino]-ethyl}-phenylamino)-piperidine-1-carboxylic Acid (3-thiophen-2-yl-propyl)-amide], the melting point lay within 73 to 77 °C. For the same compound, in data set [1], the EC50 stood at 10 nM and the “IA(β3)” value is listed as 0.88.
On the same counts, the results for `O=C(NCc1cc(F)cc(F)c1)N1CCC(Nc2ccc(CCNC[C@H](O)COc3ccc(O)cc3)cc2)CC1` [Example 24, 4-(4-{2-[(2S)-2-Hydroxy-3-(4-hydroxy-phenoxy)-propylamino]-ethyl}-phenylamino)-piperidine-1-carboxylic Acid 3,5-difluoro-benzylamide] are 89 to 95 °C, 40 nM and 0.84.
Compound `COc1cccc(CNC(=O)N2CCC(Nc3ccc(CCNC[C@H](O)COc4ccc(O)cc4)cc3)CC2)c1OC` [Example 25, 4-(4-{2-[(2S)-2-Hydroxy-3-(4-hydroxy-phenoxy)-propylamino]-ethyl}-phenylamino)-piperidine-1-carboxylic Acid 2,3-dimethoxy-benzylamide] registered a melting point of 87 to 91 °C. In data set [1], the EC50 was determined as 64 nM and the “IA(β3)” value is 0.87.
In turn, `O=C(NCc1ccccc1F)N1CCC(Nc2ccc(CCNC[C@H](O)COc3ccc(O)cc3)cc2)CC1` [Example 26, 4-(4-{2-[(2S)-2-Hydroxy-3-(4-hydroxy-phenoxy)-propylamino]-ethyl}-phenylamino)-piperidine-1-carboxylic Acid 2-fluoro-benzylamide] yielded a melting point of 79 to 84 °C. In data set [1], the “IA(β3)” value is given as 0.91.
Turning to `O=C(NCc1cccc(F)c1)N1CCC(Nc2ccc(CCNC[C@H](O)COc3ccc(O)cc3)cc2)CC1` [Example 27, 4-(4-{2-[(2S)-2-Hydroxy-3-(4-hydroxy-phenoxy)-propylamino]-ethyl}-phenylamino)-piperidine-1-carboxylic Acid 3-fluoro-benzylamide], the melting point is 68 to 73 °C. Besides, in data set [1], the EC50 was 60 nM and the “IA(β3)” value worked out at 0.86.
The compound `Cc1ccc(C(=O)CCNC(=O)N2CCC(Nc3ccc(CCNC[C@H](O)COc4ccc(O)cc4)cc3)CC2)cc1` [Example 28] returned a melting point of 85 to 89 °C. Moreover, in data set [1], the EC50 was found to be 10 nM and the “IA(β3)” value was determined as 0.76.
With `Cc1ccc(CCCNC(=O)N2CCC(Nc3ccc(CCNC[C@H](O)COc4ccc(O)cc4)cc3)CC2)cc1` [Example 29, 4-(4-{2-[(2S)-2-Hydroxy-3-(4-hydroxy-phenoxy)-propylamino]-ethyl}-phenylamino)-piperidine-1-carboxylic Acid (3-p-tolyl-propyl)-amide], the melting point is 69 to 72 °C. Further, in data set [1], the concentration giving a half-maximal response (EC50) turned out to be 43 nM and the “IA(β3)” value is recorded as 1.
On to `CCc1ccc(CCNC(=O)N2CCC(Nc3ccc(CCNC[C@H](O)COc4ccc(O)cc4)cc3)CC2)cc1` [Example 30, 4-(4-{2-[(2S)-2-Hydroxy-3-(4-hydroxy-phenoxy)-propylamino]-ethyl}-phenylamino)-piperidine-1-carboxylic Acid [2-(4-ethyl-phenyl)-ethyl]-amide], for which the melting point is 79 to 81 °C. Moreover, in data set [1], the EC50 was 34 nM and 49 nM and 22 nM and 98 nM; the “IA(β3)” value is 1 and 0.87 and 0.84 and 0.65.
`O=C(NCC(c1ccccc1)c1ccccc1)N1CCC(Nc2ccc(CCNC[C@H](O)COc3ccc(O)cc3)cc2)CC1` [Example 31, 4-(4-{2-[(2S)-2-Hydroxy-3-(4-hydroxy-phenoxy)-propylamino]-ethyl}-phenylamino)-piperidine-1-carboxylic Acid (2,2-diphenyl-ethyl)-amide] had a melting point of 91 to 94 °C. In data set [1], the EC50 is 136 nM and 68 nM; the “IA(β3)” value was 0.69 and 0.4.
Take `O=C(NCc1c(F)cccc1F)N1CCC(Nc2ccc(CCNC[C@H](O)COc3ccc(O)cc3)cc2)CC1` [Example 32, 4-(4-{2-[(2S)-2-Hydroxy-3-(4-hydroxy-phenoxy)-propylamino]-ethyl}-phenylamino)-piperidine-1-carboxylic Acid 2,6-difluoro-benzylamide]: the melting point fell in the range of 80 to 84 °C. Moreover, in data set [1], the “IA(β3)” value was 1.04 and 0.77.
On to `CCCCCCCCNC(=O)N1CCC(S(=O)(=O)c2ccc(CCNC[C@H](O)COc3ccc4c(c3)OCO4)cc2)CC1` [Example 49, 4-(4-{2-[(2S)-3-(Benzo[1,3]dioxol-5-yloxy)-2-hydroxy-propylamino]-ethyl}-benzenesulfonyl)-piperidine-1-carboxylic Acid Octylamide], for which the melting point is 84 to 86 °C.
As for `CCCCCCCCNC(=O)N1CCC(Nc2ccc(CCNC[C@H](O)COc3cccc(NC(C)=O)c3)cc2)CC1` [Example 63, 4-(4-{2-[(2S)-3-(3-Acetylamino-phenoxy)-2-hydroxy-propylamino]-ethyl}-phenylamino)-piperidine-1-carboxylic Acid Octylamide], the melting point was in the range of 73 to 74 °C.
On the same count and under the same terms, with `CCCCCCCCNC(=O)N1CCC(Nc2ccc(CCNC[C@H](O)CON=C3CCCc4c(O)cccc43)cc2)CC1` [Example 64, 4-(4-{2-[(2S)-2-Hydroxy-3-(5-hydroxy-3,4-dihydro-2H-naphthalen-1-ylideneaminooxy)-propylamino]-ethyl}-phenylamino)-piperidine-1-carboxylic Acid Octylamide] the figure was 85 to 87 °C; with `CCCCCCNC(=O)Nc1ccc(C(=O)N2CCC(Nc3ccc(CCNC[C@H](O)COc4ccc(O)cc4)cc3)CC2)cc1` [Example 93, 1-Hexyl-3-{4-[4-(4-{2-[(2S)-2-hydroxy-3-(4-hydroxy-phenoxy)-propylamino]-ethyl}-phenylamino)-piperidine-1-carbonyl]-phenyl}-urea], 108 to 111 °C.
Same read-out and setting: to `C=CCc1ccccc1OC[C@@H](O)CNCCc1ccc(NC2CCN(S(=O)(=O)c3ccc(N(CCCCCC)C(N)=O)cc3)CC2)cc1` [Example 110, N-[4-({4-[4-(2-{[(2S)-3-(2-allylphenoxy)-2-hydroxypropyl]amino}ethyl)anilino]-1-piperidinyl}sulfonyl)phenyl]-N-hexylurea] belongs 68 to 70 °C.

The term melting point denotes the temperature of the solid-liquid transition. In general, EC50 refers to the concentration at which the effect is half-maximal.
